This is an account of results in US20250113823A1, “Arthropod Control Compositions” (priority 2022, published 2025).

Each structure is given as a SMILES string.

The assay concerns Aedes aegypti. The assay can be described thus: Double (dual) chamber assay, spatial repellence. It is filed as in vivo. As to conditions: after 30 min of injection. The protocol:
FIG. 1: Percentage of mosquitoes Aedes aegypti escaping over time the chamber treated with a stimulus. The four stimuli were the solvent propan-1,2-diol (grey triangles and dotted line), N,N-diethyl-meta-toluamide (medium grey diamonds), 2,6-dimethoxy-4-methylphenol (light gray squares) and 1,2,3-trimethoxy-5-propylbenzene (black circles). Each stimulus was injected during 40 min thanks to a forced evaporation system in the treated chamber containing the mosquitoes, causing their movement toward the untreated refuge chamber. Each point represents the mean number of mosquitoes in the untreated chamber (n=57, 6, 4 and 4 respectively)±SD at 10 min intervals.
The goal of this assay was to reproduce at a smaller scale the validation test for spatial repellent as described in WHO (2013; ISBN 978 92 4 150502 4).
The assay consists of a transparent cage (1200×755×700 mm; ˜0.63 m^3) covered by white paper. This cage is divided in two chambers of equal dimensions by a plasticized paper wall with square opening (200×200 mm) situated in the middle of the wall. At the beginning of the experiment, about 40 two-weeks old female Aedes aegypti mosquitoes are placed in the right chambers. Once the mosquitoes are settled inside this chamber (>5 min), the door between the chambers is opened. Then the stimulus is introduced into the mosquito chamber through a L-shape Teflon tube (40 mm) placed in the middle of the right Plexiglas wall. The stimulus is dispensed thanks to a Forced Evaporation System (Chappuis et al, 2015, DOI: 10.1021/acs.est.5b00692) at a rate of 0.1 mL/min in a nitrogen flow of 1 L/min, blended in a humid air flow of 9L/min before being carried to the L-shape Teflon tube. An air sucking system (˜150 L/min) is placed above the wall opening, between the two chambers (100 mm Ø), preventing the untreated chamber from being contaminated by the stimulus and limiting the stimulus accumulation in the treated chamber. […] Ten, 20, 30 and 40 minutes after the start of the stimulus injection, the number of mosquitoes that have moved to the untreated chamber is manually counted.

With `CCCc1cc(OC)c(OC)c(OC)c1` [compound 1975, 1,2,3-trimethoxy-5-propylbenzene], the “plateau of mosquitoes moved to the untreated chamber” value is around 54%.
